Assays:
LASV-p = assay: organism not typed; format: cell-based, Lassa (LASV); conditions: Vero, 24 h, read-out: LASV-p EC50 (nM)
TCRV-p = assay: organism not typed; format: cell-based; conditions: Vero, 24 h, read-out: TCRV-p EC50 (nM)
GTOV-p = assay: organism not typed; format: cell-based, Guanarito (GTOV); conditions: Vero, 24 h, read-out: GTOV-p EC50 (nM)
MACV-p = assay: organism not typed; format: cell-based, Machupo (MACV); conditions: Vero, 24 h, read-out: MACV-p EC50 (nM)
JUNV-p = assay: organism not typed; format: cell-based, Junin (JUNV); conditions: Vero, 24 h, read-out: JUNV-p EC50 (nM)
in vitro = conditions: African green monkey

SMILES | EC50 (LASV-p) | EC50 (TCRV-p) | EC50 (GTOV-p) | EC50 (MACV-p) | EC50 (JUNV-p) | CC50 (in vitro)
CC(C)Oc1ccc(-c2ccc3ncc(-c4ccc(C(C)(C)O)cc4)n3c2)cc1 [Example C38, 2-(4-{6-[4-(propan-2-yloxy)phenyl]imidazo[1,2-a]pyridin-3-yl}phenyl)propan-2-ol] | 0.84 nM | 1.77 nM | 0.2 nM |  |  | 
COc1ccc(-n2cnc3ccc(-c4ccc(C#N)cc4)cc32)cc1 [Example A4, 4-[1-(4-methoxyphenyl)-1H-1,3-benzodiazol-6-yl]benzonitrile] | > 25 nM | > 25 nM |  | > 25 nM | > 25 nM | < 300 nM
COc1ccc(-n2cnc3ccc(-c4ccc(CO)cc4)cc32)cc1 [Example A10, {4-[1-(4-methoxyphenyl)-1H-1,3-benzodiazol-6-yl]phenyl}methanol] | 21.8 nM | > 25 nM |  | > 25 nM | > 25 nM | 4560 nM
CC(=O)c1ccc(-c2ccc3nnn(-c4ccc(OC(C)C)cc4)c3c2)cc1 [Example B14, 1-(4-{1-[4-(propan-2-yloxy)phenyl]-1H-1,2,3-benzotriazol-6-yl}phenyl)ethan-1-one] | 1.05 nM | > 25 nM |  | 15.4 nM | 1.36 nM | 7390 nM
COc1ccc(-n2cnc3ccc(-c4cccc(C(C)C)c4)cc32)cc1 [Example A1, 1-(4-Methoxyphenyl)-6-[3-(propan-2-yl)phenyl]-1H-1,3-benzodiazole] | 31.7 nM | > 100 nM |  | > 100 nM | > 100 nM | 12900 nM
COc1ccc(-n2cnc3ccc(-c4ccc(C(C)C)cc4)cc32)cc1 [Example A2, 1-(4-methoxyphenyl)-6-[4-(propan-2-yl)phenyl]-1H-1,3-benzodiazole] | 6.6 nM | > 100 nM |  | > 100 nM | > 100 nM | 25600 nM
CC(C)Oc1ccc(-c2cnc3ccc(-c4ccc5[nH]ncc5c4)cn23)cc1 [Example C10, 5-{3-[4-(propan-2-yloxy)phenyl]imidazo[1,2-a]pyridin-6-yl}-1H-indazole] | 4.61 nM | > 25 nM |  | 28.9 nM | 19 nM | > 100 nM
CC(C)Oc1ccc(-c2ccc3ncn(-c4ccc5[nH]ccc5c4)c3c2)cc1 [Example A27, 1-(1H-indol-5-yl)-6-[4-(propan-2-yloxy)phenyl]-1H-1,3-benzodiazole] | 0.6 nM | 2.57 nM |  | 0.38 nM | 0.39 nM | 3860 nM
CC(C)Oc1ccc(-n2cnc3ccc(-c4ccc(N5CCOCC5)cc4)cc32)cc1 [Example A21, 6-[4-(morpholin-4-yl)phenyl]-1-[4-(propan-2-yloxy)phenyl]-1H-1,3-benzodiazole] | 3.07 nM | > 25 nM |  | 14.4 nM | 3.5 nM | 5220 nM
CC(=O)c1ccc(-c2ccc3ncn(-c4ccc(OC(C)C)cc4)c3n2)cc1 [Example B4, 1-(4-{3-[4-(propan-2-yloxy)phenyl]-3H-imidazo[4,5-b]pyridin-5-yl}phenyl)ethan-1-one] | 0.956 nM | 14.9 nM |  | 18.6 nM | 4.31 nM | 19700 nM
CC(=O)c1ccc(-c2ccc3ncn(-c4ccc(OC(C)C)cc4)c3c2)cc1 [Example A26, 1-(4-{1-[4-(propan-2-yloxy)phenyl]-1H-1,3-benzodiazol-6-yl}phenyl)ethan-1-one] | 0.59 nM | 1.45 nM | 0.73 nM | 0.7 nM | 0.81 nM | 7520 nM
CC(C)Oc1ccc(-c2cnc3ccc(-c4ccc5c(ccn5C)c4)cn23)cc1 [Example C22, 1-methyl-5-{3-[4-(propan-2-yloxy)phenyl]imidazo[1,2-a]pyridin-6-yl}-1H-indole] | 2.33 nM | 4.94 nM | 0.45 nM | 0.335 nM | 0.415 nM | 24400 nM
CC(C)Oc1ccc(-c2cnc3ncc(-c4ccc5[nH]ccc5c4)n3c2)cc1 [Example D16, 5-{6-[4-(propan-2-yloxy)phenyl]imidazo[1,2-a]pyrimidin-3-yl}-1H-indole] | 5.37 nM | 19.9 nM | 3.52 nM | 19.1 nM | 1.05 nM | 7530 nM
CC(C)Oc1ccc(-c2ccn3cnc(-c4ccc(OC(C)C)cc4)c3c2)cc1 [Example D19, 1,7-bis[4-(propan-2-yloxy)phenyl]imidazo[1,5-a]pyridine] | > 25 nM | > 25 nM |  | > 25 nM | > 25 nM | 7540 nM
COc1ccc(-c2ccc3ncn(-c4ccc(OC)cc4)c3c2)cc1 [Example A3, 1,6-bis(4-methoxyphenyl)-1H-1,3-benzodiazole] | 7.6 nM | > 25 nM |  | > 25 nM | > 25 nM | < 300 nM
CC(C)Oc1ccc(-c2cn3c(-c4ccc5[nH]ccc5c4)cnc3cn2)cc1 [Example D13, 5-{6-[4-(propan-2-yloxy)phenyl]imidazo[1,2-a]pyrazin-3-yl}-1H-indole] | 12.3 nM | 10.3 nM |  | 12 nM | 3.29 nM | > 100000 nM
CC(C)Oc1ccc(-c2ccc3nc(C(N)=O)c(-c4ccc(OC(C)C)cc4)n3c2)cc1 [Example D22, 3,6-bis[4-(propan-2-yloxy)phenyl]imidazo[1,2-a]pyridine-2-carboxamide] | > 25 nM | > 25 nM |  | > 25 nM | > 25 nM | 49500 nM
CC(C)Oc1ccc(-c2ccc3ncc(-c4ccc(C5(O)CC5)cc4)n3c2)cc1 [Example C44, 1-(4-{6-[4-(propan-2-yloxy)phenyl]imidazo[1,2-a]pyridin-3-yl}phenyl)cyclopropan-1-ol] | 0.23 nM | 0.135 nM |  | 0.32 nM | 0.07 nM | > 100 nM
CC(C)Oc1ccc(-n2ncc3ccc(-c4ccc5[nH]ccc5c4)cc32)cc1 [Example D2, 6-(1H-indol-5-yl)-1-[4-(propan-2-yloxy)phenyl]-1H-indazole] | 7.99 nM | > 25 nM |  | 22.5 nM | 17.8 nM | 4340 nM
CC(C)Oc1ccc(-n2cnc3cnc(-c4ccc(C(C)(C)O)cc4)nc32)cc1 [Example B9, 2-(4-{9-[4-(propan-2-yloxy)phenyl]-9H-purin-2-yl}phenyl)propan-2-ol] | 19.7 nM | > 25 nM |  | 29.7 nM | 11.9 nM | 27700 nM
CC(C)Oc1ccc(-n2cnc3ccc(-c4ccc5[nH]ccc5c4)nc32)cc1 [Example B3, 5-{3-[4-(propan-2-yloxy)phenyl]-3H-imidazo[4,5-b]pyridin-5-yl}-1H-indole] | 1.01 nM | 27.7 nM |  | 10.3 nM | 1.79 nM | > 100000 nM
COc1ccc(-n2cnc3ccc(-c4ccc(C(C)=O)cc4)cc32)cc1 [Example A14, 1-{4-[1-(4-methoxyphenyl)-1H-1,3-benzodiazol-6-yl]phenyl}ethan-1-one] | 7.4 nM | > 25 nM |  | > 25 nM | > 25 nM | 1950 nM
COc1ccc(-n2cnc3ccc(-c4ccc(O)cc4)cc32)cc1 [Example A13, 4-[1-(4-methoxyphenyl)-1H-1,3-benzodiazol-6-yl]phenol] | 5 nM | > 25 nM |  | > 25 nM | > 25 nM | 1270 nM
CC(C)Oc1ccc(-c2ccc3noc(-c4ccc(OC(C)C)cc4)c3c2)cc1 [Example D18, 3,5-bis[4-(propan-2-yloxy)phenyl]-2,1-benzoxazole] | > 25 nM | > 25 nM |  | > 25 nM | 5.58 nM | > 100000 nM
COCCOc1ccc(-c2cnc3ccc(-c4ccc(OC(C)C)cc4)cn23)cc1 [Example C42, 3-[4-(2-methoxyethoxy)phenyl]-6-[4-(propan-2-yloxy)phenyl]imidazo[1,2-a]pyridine] | 3.08 nM | 11.7 nM |  | 23.1 nM | 2.6 nM | 5360 nM
CC(C)Oc1ccc(-n2ccc3ccc(-c4ccc5[nH]ccc5c4)cc32)cc1 [Example D5, 6-(1H-indol-5-yl)-1-[4-(propan-2-yloxy)phenyl]-1H-indole] | 12.5 nM | > 25 nM |  | > 25 nM | 27.8 nM | 5.87 nM
COc1ccc(-n2cnc3ccc(-c4cccc(OC)c4)cc32)cc1 [Example A6, 6-(3-methoxyphenyl)-1-(4-methoxyphenyl)-1H-1,3-benzodiazole] | > 25 nM | > 25 nM |  | > 25 nM | > 25 nM | 9720 nM
CC(C)Oc1ccc(-c2cnc3ccc(-c4ccc(C5(O)COC5)cc4)cn23)cc1 [Example C28, 3-(4-{3-[4-(propan-2-yloxy)phenyl]imidazo[1,2-a]pyridin-6-yl}phenyl)oxetan-3-ol] | 17.3 nM | > 25 nM |  | > 25 nM | 14.9 nM | > 100000 nM
CC(C)Oc1ccc(-c2nnc3ccc(-c4ccc5[nH]ccc5c4)cn23)cc1 [Example D7, 5-{3-[4-(propan-2-yloxy)phenyl]-[1,2,4]triazolo[4,3-a]pyridin-6-yl}-1H-indole] | 4.1 nM | 26.3 nM |  | > 25 nM | 18 nM | 1870 nM
CC(C)Oc1ccc(-c2cnc3ccc(-c4ccc(C(F)F)cc4)cn23)cc1 [Example C5, 6-[4-(difluoromethyl)phenyl]-3-[4-(propan-2-yloxy)phenyl]imidazo[1,2-a]pyridine] | 4.1 nM | > 25 nM |  | 31.4 nM | 9.09 nM | 4690 nM
